Results: ChEMBL document CHEMBL1156473, “Crystal structure of human estrogen-related receptor alpha in complex with a synthetic inverse agonist reveals its novel molecular mechanism” (J Biol Chem, 2007)

Experiments:
[1] = target: T1, Steroid hormone receptor ERR1 (Homo sapiens, UniProt P11474); assay: Binding affinity to ERRalpha ligand binding domain by FRET assay
T1 sequence (P11474 whole entry): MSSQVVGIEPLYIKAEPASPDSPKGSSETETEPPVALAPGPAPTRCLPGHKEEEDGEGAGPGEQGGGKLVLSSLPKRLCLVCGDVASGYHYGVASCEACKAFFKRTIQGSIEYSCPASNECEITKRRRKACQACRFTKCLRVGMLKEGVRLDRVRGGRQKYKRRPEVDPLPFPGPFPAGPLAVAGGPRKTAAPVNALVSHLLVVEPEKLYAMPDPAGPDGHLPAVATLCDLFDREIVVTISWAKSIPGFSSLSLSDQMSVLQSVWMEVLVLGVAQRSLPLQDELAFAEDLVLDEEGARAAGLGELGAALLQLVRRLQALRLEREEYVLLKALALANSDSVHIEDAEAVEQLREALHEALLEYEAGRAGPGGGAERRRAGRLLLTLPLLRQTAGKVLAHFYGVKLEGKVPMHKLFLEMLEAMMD

[2] = target: T1, Steroid hormone receptor ERR1; assay: Binding affinity to wild type ERRalpha ligand binding domain by isothermal titration calorimetry
[3] = Binding affinity to ERRalpha C325S mutant ligand binding domain expressed in sf9 cells by isothermal titration calorimetry

IC50 [1]: 700 nM
Kd [2]: 770 nM
Structure (SMILES): c1ccc(-n2cc(CNCC3CCCCC3)c3ccccc32)cc1
Kd [3]: 930 nM
